In ChEMBL document CHEMBL1759887, “Discovery of indole alkaloids with cannabinoid CB1 receptor antagonistic activity” (Bioorg Med Chem Lett, 2011):

Target: Cannabinoid receptor 1 (Homo sapiens, UniProt P21554)
Experiment: Antagonist activity at CB1 receptor transfected in CHO cells expressing apoaequorin as a reporter for G-protein-coupled receptor-mediated calcium signaling by bioluminescence assay
Type: functional, cell-based

Chain of Cannabinoid receptor 1 (P21554 whole entry): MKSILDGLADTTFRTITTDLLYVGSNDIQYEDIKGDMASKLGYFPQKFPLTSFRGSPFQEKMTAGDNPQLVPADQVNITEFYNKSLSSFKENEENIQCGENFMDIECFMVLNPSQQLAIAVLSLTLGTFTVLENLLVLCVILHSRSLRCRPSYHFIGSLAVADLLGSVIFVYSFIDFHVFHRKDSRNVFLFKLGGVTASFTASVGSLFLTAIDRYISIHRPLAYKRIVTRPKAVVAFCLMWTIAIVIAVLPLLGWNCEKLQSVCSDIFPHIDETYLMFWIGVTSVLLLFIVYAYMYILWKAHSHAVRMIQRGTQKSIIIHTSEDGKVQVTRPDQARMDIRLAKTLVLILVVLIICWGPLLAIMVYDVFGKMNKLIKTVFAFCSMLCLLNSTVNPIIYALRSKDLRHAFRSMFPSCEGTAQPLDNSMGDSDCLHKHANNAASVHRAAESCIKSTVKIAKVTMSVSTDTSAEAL

`CC[C@H]1C[C@@H]2C[C@@]3(C(=O)OC)c4[nH]c5ccc(OC)cc5c4[C@@H]4CN([C@@H]13)[C@H]2O4` and `CC[C@H]1C[C@@H]2C[C@@]3(C(=O)OC)c4[nH]c5ccc(OC)cc5c4[C@H]4O[C@@H]2N([C@@H]4O)[C@@H]13` are within 1.5-fold of each other in IC50: 199 nM for the first, 141 nM for the second.

Work on `CC=C1CN(C)C2Cc3c([nH]c4ccccc34)C(c3cc4[nH]c5c(c4cc3OC)CCN3CC4CC(CC)C3C5(C(=O)OC)C4)CC1C2C(=O)OC` (stereo not drawn) [VOACAMINE] yielded an IC50 of 41 nM.
